Experimental data from patent US9879050B2, “Substituted urea depsipeptide analogs as activators of the CLPP endopeptidase” (priority 2013, dated 2018).
In brackets after ≈: the same amount, converted by molar mass.

Tests used:
Sa-ClpP [1] = molecular target: T1, Sa-ClpP (Staphylococcus aureus, UniProt Q2G036); assay: ADEP displacement fluorescence polarization assay; format: binding, S. aureus; details: 1 μM Sa-ClpP, 50 nM FP probe ADEP 2591; read-out: ADEP Displacement IC50
T1 construct: made in house; host or cells: E. coli BL21 (DE3)
T1 sequence (Q2G036 whole entry): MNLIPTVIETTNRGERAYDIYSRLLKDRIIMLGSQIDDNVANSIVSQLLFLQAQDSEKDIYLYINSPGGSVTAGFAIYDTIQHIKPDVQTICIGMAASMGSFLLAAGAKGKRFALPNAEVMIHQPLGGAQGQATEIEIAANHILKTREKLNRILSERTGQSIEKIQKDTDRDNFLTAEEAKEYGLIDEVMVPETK
Protocol: A fluorescence polarization (FP) assay was used to determine the activity of the disclosed compounds in displacing an ADEP analogue from ClpP. Briefly, the assay was performed in black 384 well, flat bottom, low volume plates (Greiner Bio-One, Monroe, N.C., catalog #784076). 20 μL of a pre-equilibrated (1 hr, room temperature) master mix (1 μM Sa-ClpP, 2% DMSO (v/v) and 50 nM FP probe in Tris*HCl, pH 8.0)) was pipetted into each well using a Well-Mate (Thermo Scientific, Waltham, Mass.). Sa-ClpP was prepared as described above for the ClpP activation assay. The FP probe was ADEP 2591 (structure shown above). The ADEP 2591 comprises a TAMRA fluorophore linked to a core based on modified ADEP 2378 via a short alkyl linker. Using pin transfer, approximately 0.4 μL (2% v/v DMSO) of each compound or control was added per well. After addition of compounds and controls, plates were allowed to incubate for an additional 120 minutes at room temperature. All assays were performed in triplicate. Polarization was monitored using an EnVision Multilabel reader (Perkin-Elmer, Waltham, Mass.) by exciting the FP probe at 530±25 nm, and monitoring fluorescence intensity of both parallel and perpendicular polarized light at 579±25 nm. Readout was in millipolarization units (mP).
Signal gain and G factors were determined in wells containing 20 μM ADEP 2378, which had been previously verified (data not shown) as containing completely unbound ADEP 2591. Data collected was normalized to values obtained from positive (20 μM ADEP 2378) or negative (DMSO) controls. Curves were fit with non-linear regression using the equation “log [inhibitor]vs. Response-variable slope (four parameters)-symmetrical” in the program Prism 6 (GraphPad Software, La Jolla, Calif. USA, www.graphpad.com). The structures for ADEP 2378 and ADEP 2591 are shown above. ADEP 2378 is (E)-N-((S)-1-(((2R,6S,8aS,14aS,20S,23aS)-2,6-dimethyl-5,8,14,19,23-pentaoxooctadecahydro-1H,5H,14H,19H-pyrido[2,1-i]dipyrrolo[2,1-c:2′,1′-1][1]oxa[4,7,10,13]tetraazacyclohexadecin-20-yl)amino)-1-oxo-3-phenylpropan-2-yl)pent-2-enamide. ADEP 2591 is 5-(3-(3-((6S,9S,11aS,17S,20aS)-6,10-dimethyl-5,8,11,16,20-pentaoxo-17-((S)-2-((E)-pent-2-enamido)-3-phenylpropanamido)hexadecahydro-1H,5H,16H-dipyrrolo[2,1-c:2′,1′-1][1]oxa[4,7,10,13]tetraazacyclohexadecin-9-yl)propyl)thioureido)-2-(6-(dimethylamino)-3-(dimethyliminio)-3H-xanthen-9-yl)benzoate.

B. subtilis ATCC 23857 = assay: Minimal inhibitory concentration, microbroth dilution; format: cell-based; details: Bacillus subtilis, ATCC23857, read-out: Minimal Inhibitory Concentration B. subtilis ATCC 23857
Protocol: (§1) Minimal inhibitory concentrations (“MICs”) were determined using the microbroth dilution method according to Clinical Laboratory Standards Institute (CLSI; National, C.F. C. L. S., Methods for Dilution Antimicrobial Susceptibility Tests for Bacteria Grow aerobically-Seventh Edition: Approved Standard M7-A7, CLSI, Wayne, Pa., USA, 2008) and were read by visual inspection. Two fold serial dilutions of test compound in 100 μL of the appropriate broth media were first prepared in 96-well round bottom microtiter plates (Nalgene Nunc International, Rochester, N.Y., USA). An equivalent volume (100 μL) of bacterial broth inocula containing approximately 10^5 bacterial cfu/mL was added to each well to give final concentrations of test compound starting at 200 μM. The plates were then incubated aerobically at 37° C. All strains were incubated overnight. After incubations, in all cases the MIC was recorded as the lowest concentration of drug that prevented bacterial growth. The bacterial strains for which MIC was determined as described in Table 4.

S. aureus ATCC 29213 = assay: as above; format: cell-based; details: Staphylococcus aureus, ATCC29213, read-out: Minimal Inhibitory Concentration S. aureus ATCC 29213
Protocol: as §1

S. aureus USA 300 ΔClpP = assay: as above; format: cell-based, Staphylococcus aureus; details: ClpP inactivated strain
Protocol: as §1

Sa-ClpP [2] = molecular target: T1, Sa-ClpP; assay: ClpP activation, EnzCheck Protease Assay with Bodipy-FL casein (second described method); format: biochemical, S. aureus; details: read-out: ClpP Activation EC50 (converted)
Protocol: Alternatively, the assay was carried out using EnzCheck Protease Assay (Molecular Probes, Catalog #E6638). The assay was performed in black 384 well, flat bottom, low volume plates (Greiner Bio-One, Monroe, N.C., catalog #784076). 10 μL of Tris.HCl buffer, pH 8.0 with 0.01% Triton X-100 was pipetted into each well using a Well-Mate (Thermo Scientific, Waltham, Mass.). 0.4 μL test compounds or controls (2% DMSO v/v) were added to each well using a Biomek FX liquid handling robot (Beckman Coulter, Indianapolis Ind.). After addition of test compounds and controls, 10 μL of master mix containing 2 μM Sa-ClpP and 2 μM substrate (Bodipy-FL labeled casein) in Tris*HCl buffer, pH 8.0 with 0.01% (v/v) Triton X-100, was pipetted into each well. All assays were performed in triplicate, under linear velocity conditions. Increase in fluorescent signal following activation of Sa-ClpP by test compounds and controls was measured over time period of 30 mins using filters with excitation at 485±15 nm and emission at 520±25 nm on a PHERAstar FS Multilabel reader (BMG, Cary, N.C.). […] Data analysis was done by measuring rate of casein degradation over time (slopes). Computed degradation rates (slopes) were normalized to positive (ADEP4) or negative (DMSO) controls. Using nonlinear regression curve fitting EC50 values and % activation were determined using the equation “log [agonist]vs. Response-variable slope (four parameters)-symmetrical” in the program Prism 6 (GraphPad Software, La Jolla, Calif. USA, www.graphpad.com).

S. pyogenes ATCC 700294 = assay: Minimal inhibitory concentration, microbroth dilution; format: cell-based; details: Streptococcus pyogenes, ATCC700294, read-out: Minimal Inhibitory Concentration S. pyogenes ATCC 700294
Protocol: (§2) Minimal inhibitory concentrations (“MICs”) were determined using the microbroth dilution method according to Clinical Laboratory Standards Institute (CLSI; National, C.F. C. L. S., Methods for Dilution Antimicrobial Susceptibility Tests for Bacteria Grow aerobically-Seventh Edition: Approved Standard M7-A7, CLSI, Wayne, Pa., USA, 2008) and were read by visual inspection. Two fold serial dilutions of test compound in 100 μL of the appropriate broth media were first prepared in 96-well round bottom microtiter plates (Nalgene Nunc International, Rochester, N.Y., USA). […] The plates were then incubated aerobically at 37° C. All strains were incubated overnight. After incubations, in all cases the MIC was recorded as the lowest concentration of drug that prevented bacterial growth. The bacterial strains for which MIC was determined as described in Table 4.

S. pneumoniae R6 = assay: as above; format: cell-based; details: Streptococcus pneumoniae, R6, read-out: Minimal Inhibitory Concentration S. pneumoniae R6
Protocol: as §2

Cc1ccc(NC(=O)N[C@@H](Cc2cc(F)cc(F)c2)C(=O)N[C@H]2COC(=O)C3C[C@@H](F)CN3C(=O)[C@H](C)NC(=O)C3CCCCN3C(=O)C3CCCN3C2=O)cc1 (stereo partly drawn) [Compound 51, (S)-3-(3,5-Difluorophenyl)-N-((2R,6S,8aS,14aS,20S,23aS)-2-Fluoro-6-Methyl-5,8,14,19,23-Pentaoxooctadecahydro-1H,5H,14H,19H-Pyrido[2,1-I]Dipyrrolo[2,1-C:2′,1′-L][1]Oxa[4,7,10,13]Tetraazacyclohexadecin-20-Yl)-2-(3-(P-Tolyl)Ureido)Propanamide]
IC50 (Sa-ClpP [1]): 9.71 ± 0.3 µM | MIC (B. subtilis ATCC 23857): > 200 µM | MIC (S. aureus ATCC 29213): 12.5 µM (≈ 9.97 µg/mL) | Minimal Inhibitory Concentration S. aureus USA 300 ΔClpP (S. aureus USA 300 ΔClpP): >200 µM | EC50 (Sa-ClpP [2]): 2.5 ± 0.2 µM | MIC (S. pyogenes ATCC 700294): 12.5 µM (≈ 9.97 µg/mL) | MIC (S. pneumoniae R6): 6.3 µM (≈ 5.03 µg/mL)

Cc1ccc(NC(=O)N[C@@H](Cc2cc(F)cc(F)c2)C(=O)N[C@@H]2C(=O)N3CCCC3C(=O)N3CCOCC3C(=O)N[C@@H](C)C(=O)N3C[C@H](C)CC3C(=O)O[C@H]2C)cc1 (stereo partly drawn) [Compound 47, (S)-3-(3,5-Difluorophenyl)-2-(3-(P-Tolyl)Ureido)-N-((6aS,12S,13S,15aS,17R,21S,23aS)-13,17,21-Trimethyl-6,11,15,20,23-Pentaoxooctadecahydro-6H,11H,15H-[1,4]Oxazino[3,4-I]Dipyrrolo[2,1-C:2′,1′-L][1]Oxa[4,7,10,13]Tetraazacyclohexadecin-12-Yl)Propanamide]
IC50 (Sa-ClpP [1]): 7.01 ± 0.3 µM | MIC (B. subtilis ATCC 23857): 0.8 µM (≈ 0.648 µg/mL) | MIC (S. aureus ATCC 29213): 0.003 µM (≈ 0.00243 µg/mL) | Minimal Inhibitory Concentration S. aureus USA 300 ΔClpP (S. aureus USA 300 ΔClpP): >200 µM | EC50 (Sa-ClpP [2]): 0.4 ± 0.01 µM | MIC (S. pyogenes ATCC 700294): 0.02 µM (≈ 0.0162 µg/mL) | MIC (S. pneumoniae R6): 0.002 µM (≈ 0.00162 µg/mL)

Cc1ccc(NC(=O)N[C@@H](Cc2cc(F)cc(F)c2)C(=O)N[C@H]2COC(=O)C3CC(C)(C)CN3C(=O)[C@H](C)NC(=O)C3CCCCN3C(=O)C3CCCN3C2=O)cc1 (stereo partly drawn) [Compound 49, (S)-3-(3,5-Difluorophenyl)-2-(3-(P-Tolyl)Ureido)-N-((6S,8aS,14aS,20S,23aS)-2,2,6-Trimethyl-5,8,14,19,23-Pentaoxooctadecahydro-1H,5H,14H,19H-Pyrido[2,1-I]Dipyrrolo[2,1-C:2′,1′-L][1]Oxa[4,7,10,13]Tetraazacyclohexadecin-20-Yl)Propanamide]
IC50 (Sa-ClpP [1]): 12.7 ± 0.2 µM | MIC (B. subtilis ATCC 23857): 0.4 µM (≈ 0.323 µg/mL) | MIC (S. aureus ATCC 29213): 12.5 µM (≈ 10.1 µg/mL) | Minimal Inhibitory Concentration S. aureus USA 300 ΔClpP (S. aureus USA 300 ΔClpP): 100 µM | EC50 (Sa-ClpP [2]): 2.3 ± 0.2 µM | MIC (S. pyogenes ATCC 700294): 25 µM (≈ 20.2 µg/mL) | MIC (S. pneumoniae R6): 6.3 µM (≈ 5.09 µg/mL)

Cc1ccc(NC(=O)N[C@@H](Cc2cc(F)cc(F)c2)C(=O)N[C@H]2COC(=O)C3C[C@H](F)CN3C(=O)[C@H](C)NC(=O)C3CCCCN3C(=O)C3CCCN3C2=O)cc1 (stereo partly drawn) [Compound 50, (S)-3-(3,5-Difluorophenyl)-N-((2S,6S,8aS,14aS,20S,23aS)-2-Fluoro-6-Methyl-5,8,14,19,23-Pentaoxooctadecahydro-1H,5H,14H,19H-Pyrido[2,1-I]Dipyrrolo[2,1-C:2′,1′-L][1]Oxa[4,7,10,13]Tetraazacyclohexadecin-20-Yl)-2-(3-(P-Tolyl)Ureido)Propanamide]
IC50 (Sa-ClpP [1]): 7.66 ± 0.2 µM | MIC (B. subtilis ATCC 23857): > 200 µM | MIC (S. aureus ATCC 29213): 3.1 µM (≈ 2.47 µg/mL) | Minimal Inhibitory Concentration S. aureus USA 300 ΔClpP (S. aureus USA 300 ΔClpP): >200 µM | EC50 (Sa-ClpP [2]): 0.9 ± 0.07 µM | MIC (S. pyogenes ATCC 700294): 1.6 µM (≈ 1.28 µg/mL) | MIC (S. pneumoniae R6): 0.8 µM (≈ 0.638 µg/mL)

Cc1ccc(NC(=O)N[C@@H](Cc2cc(F)cc(F)c2)C(=O)N[C@H]2COC(=O)C3C[C@H](C)CN3C(=O)[C@H](C)NC(=O)C3CCCCN3C(=O)C3CCCN3C2=O)cc1C (stereo partly drawn) [Compound 48, (S)-3-(3,5-Difluorophenyl)-N-((2S,6S,8aS,14aS,20S,23aS)-2,6-Dimethyl-5,8,14,19,23-Pentaoxooctadecahydro-1H,5H,14H,19H-Pyrido[2,1-I]Dipyrrolo[2,1-C:2′,1′-L][1]Oxa[4,7,10,13]Tetraazacyclohexadecin-20-Yl)-2-(3-(3,4-Dimethylphenyl)Ureido)Propanamide]
IC50 (Sa-ClpP [1]): 8.1 ± 0.3 µM | MIC (B. subtilis ATCC 23857): 0.2 µM (≈ 0.162 µg/mL) | MIC (S. aureus ATCC 29213): 1.6 µM (≈ 1.29 µg/mL) | Minimal Inhibitory Concentration S. aureus USA 300 ΔClpP (S. aureus USA 300 ΔClpP): 200 µM | EC50 (Sa-ClpP [2]): 0.7 ± 0.03 µM | MIC (S. pyogenes ATCC 700294): 3.1 µM (≈ 2.5 µg/mL) | MIC (S. pneumoniae R6): 0.8 µM (≈ 0.646 µg/mL)
